The values below come from patent US7037919B1, “Tetrahydroquinoline derivatives” (Kaken Pharmaceutical Co. Ltd., priority 1999, dated 2006).

Assay [1] concerns orchiectomized (ORX) rats. Description: Action of increasing prostate weight and bone mineral density in orchiectomized (ORX) rats (Test Example 4). The format is in vivo, rat. To be noted: 10 mg/kg s.c. once daily, 5 days weekly, 4 weeks, ORX SD rats, Mean ± SD. The procedure:
Action of Increasing Prostate Weight and Bone Mineral Density in Orchiectomized (ORX) Rats
Orchiectomy was performed in 12-week-old male SD rats. From the next day postoperation, the positive control compound dihydrotestosterone (DHT, 10 mg/kg) and the compound of the present invention (Example 60, 60 mg/kg), each dissolved in a 5% dimethyl sulfoxide-containing olive oil solution, were subcutaneously injected once daily, 5 days weekly, for 4 weeks. On the next day after final administration, the wet weight of the ventral prostate was measured to evaluate the AR agonistic effect of the compound of the present invention. On the next day following final administration, moreover, the right femur was removed, and fixed overnight in a 10% neutrally buffered formalin solution. Then, the bone mineral density at the site ranging from the diaphysis to the proximal end was measured by the method of double energy X-ray absorption using a bone mineral content-measuring machine (Aloka, DCS-600) to evaluate increasing action of bone mineral density of the compound of the present invention.

Assay [2] has as its system orchiectomized rats. Description: Action of increasing prostate weight in orchiectomized rats (Test Example 2, printed 21). The format is in vivo, rat. The settings on record: for Weight of prostate: orchiectomized SD rats, Mean ± SD. How it is done:
Action of Increasing Prostate Weight in Orchiectomized Rats
Testes were removed from 8- to 12-week-old male SD rats. From 5 days postoperation, the compound of the present invention (3, 30 mg/kg), suspended in a 0.5% methyl cellulose solution, was subcutaneously injected once daily for a consecutive week, and 6 days weekly for 8 consecutive weeks. On the next day after final administration, the wet weight of the ventral prostate was measured to evaluate the in vivo AR agonistic effect of the compound of the present invention.

Assay [3] concerns AR. Description: Assignment of compounds as having AR agonistic or AR antagonistic action (description, no method given). To be noted: compounds named as usable for category A diseases.
For assay [4], the target named is T1, Rat androgen receptors (rat AR) (Rattus norvegicus, UniProt P15207).
T1 construct: from tissue; host or cells: prostate of orchiectomized male SD rats (100,000 x g supernatant)
T1 sequence (P15207 1-902): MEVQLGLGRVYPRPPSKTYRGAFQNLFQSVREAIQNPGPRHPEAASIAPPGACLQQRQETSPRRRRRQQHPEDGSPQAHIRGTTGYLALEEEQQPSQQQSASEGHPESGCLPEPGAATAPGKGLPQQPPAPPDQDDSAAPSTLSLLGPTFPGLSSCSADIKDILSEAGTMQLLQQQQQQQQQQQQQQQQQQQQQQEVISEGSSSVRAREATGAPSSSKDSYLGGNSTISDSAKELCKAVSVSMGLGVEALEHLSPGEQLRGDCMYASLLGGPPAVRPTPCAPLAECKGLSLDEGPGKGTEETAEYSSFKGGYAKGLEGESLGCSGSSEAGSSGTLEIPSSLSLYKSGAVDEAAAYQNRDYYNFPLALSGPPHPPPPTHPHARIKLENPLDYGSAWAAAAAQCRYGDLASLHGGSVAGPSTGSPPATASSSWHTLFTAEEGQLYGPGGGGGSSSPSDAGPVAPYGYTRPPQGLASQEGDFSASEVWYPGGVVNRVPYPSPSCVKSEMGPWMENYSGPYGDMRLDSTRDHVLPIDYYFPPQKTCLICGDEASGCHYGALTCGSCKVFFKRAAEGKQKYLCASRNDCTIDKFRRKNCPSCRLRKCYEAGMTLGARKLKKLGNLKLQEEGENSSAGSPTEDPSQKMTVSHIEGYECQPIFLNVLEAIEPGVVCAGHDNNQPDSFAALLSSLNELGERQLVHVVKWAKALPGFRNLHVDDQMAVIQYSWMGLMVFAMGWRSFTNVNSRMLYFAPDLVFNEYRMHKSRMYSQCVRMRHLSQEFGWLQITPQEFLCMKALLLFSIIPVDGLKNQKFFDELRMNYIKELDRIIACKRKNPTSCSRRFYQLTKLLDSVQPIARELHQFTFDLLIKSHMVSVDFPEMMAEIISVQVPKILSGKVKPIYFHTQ
Description: Test for competitive binding to rat androgen receptors. To be noted: 3H-testosterone, rat prostate AR fraction; hydroxyflutamide taken as 100. How it is done:
Test for Competitive Binding to Rat Androgen Receptors (Rat AR)
Preparation of rat AR fraction: Prostates were harvested into ice-cooled ET buffer (10 mM Tris, 1 mM EDTA, 5 mM DTT, 10 mM sodium molybdate, pH 7.4) 3 days after orchiectomy in 11-week-old male SD rats. The prostate was finely cut, and ET buffer was added, whereafter the mixture was homogenized using a homogenizer. The homogenate was ultracentrifuged (100,000×g, 60 min, 4° C.), and the supernatant was used as a rat AR fraction (hereinafter referred to as ARF).
Binding test: ^3H-testosterone (hereinafter referred to as ^3H-T) was diluted with ET buffer. Dihydrotestosterone (DHT) was prepared so as to have a concentration (final concentration 1 μM) 400 times the maximum concentration of ^3H-T (2.5 nM). The ^3H-T solution was added to a 1.5 ml tube containing DHT, no DHT, or the test compound with a varying concentration. Further, 200 μg ARF was added to adjust the final volume to 100 μl. The mixture was incubated for 2 hours at 4° C., and then 300 μl of a 0.05% dextran T70-1.0% activated carbon solution was added. The mixture was further incubated for 15 minutes in ice to remove the free ^3H-T. After centrifugation (4° C., 2,500 rpm, 5 min), 275 μl of the supernatant was harvested into a liquid scintillation vial, and 2 ml of clear-sol was added. The mixture was stirred, allowed to stand, and measured for ^3H radioactivity with a liquid scintillation counter.
Calculation of the relative binding inhibition rate: The binding inhibition rate (%) of the compound according to the present invention was calculated from the following equation, and the 50% inhibition concentration (IC50) was calculated by the probit analysis of the concentration-binding inhibition curve.
The relative binding inhibition rate (RBA: Relative Binding Affinity) was obtained from the following equation (Endocrinology 138, 863-870, 1997): RBA=100×(IC50 of hydroxyflutamide)/(IC50 of the compound of the present invention) • RBA's of the compounds of the present invention, calculated as above, are shown in Table 10.

Molecules are shown by their SMILES.

In the case of `C[C@]12CCC(=O)C[C@@H]1CC[C@@H]1[C@@H]2CC[C@]2(C)[C@@H](O)CC[C@@H]12` [DHT, dihydrotestosterone, reference compound], in assay [1], the Prostate weight is listed as 150 ± 14 mg/body weight 100 g. For the same molecule, in assay [1] (right femur), the Bone mineral density was found to be 131 ± 7 mg/cm^2.
Consider `CC(C)(CO)C1Nc2ccc([N+](=O)[O-])cc2C2C=CCC21` (stereo not shown) [Example 1, 2-methyl-2-(8-nitro-3a,4,5,9b-tetrahydro-3H-cyclopenta[c]quinolin-4-yl)-propan-1-ol], for which the Weight of prostate is listed as 18 ± 4 mg/body weight (100 g) in assay [2] (1-week treatment, 3 mg/kg s.c. once daily); 26 ± 3 mg/body weight (100 g) in assay [2] (1-week treatment, 30 mg/kg s.c. once daily); 52 ± 8 mg/body weight (100 g) in assay [2] (8-week treatment, 3 mg/kg s.c. 6 days weekly); 97 ± 14 mg/body weight (100 g) in assay [2] (8-week treatment, 30 mg/kg s.c. 6 days weekly). Also, in assay [2] (consecutively administered for 1 week (3, 30 mg/kg s.c.)), the “Prostate weights in comparison with the comparative example” value is “significantly increased prostate weights”. Moreover, in assay [2] (duration of treatment extended to 8 weeks (3, 30 mg/kg s.c.)), the “Prostate weight relative to normal control” value is recorded as “restored the atrophied prostate up to the level of the normal control”. Further, the AR agonistic action entry in assay [3] was “AR agonistic action”. Moreover, the “RBA (Relative Binding Affinity = 100 x IC50 of hydroxyflutamide / IC50 of the compound)” value in assay [4] is given as 4751.
Turning to `CC(C)(CO)C1Nc2cccc([N+](=O)[O-])c2C2C=CCC21` (stereo not shown) [Example 7], the “RBA (Relative Binding Affinity = 100 x IC50 of hydroxyflutamide / IC50 of the compound)” value in assay [4] is recorded as 65.
As to `COC(C)(C)C1Nc2ccc([N+](=O)[O-])cc2C2C=CCC21` (stereo not shown) [Example 19], the “RBA (Relative Binding Affinity = 100 x IC50 of hydroxyflutamide / IC50 of the compound)” value in assay [4] turned out to be 57.
For `CC(C)(OCc1ccccc1)C1Nc2ccc([N+](=O)[O-])cc2C2C=CCC21` (stereo not shown) [Example 21], the “RBA (Relative Binding Affinity = 100 x IC50 of hydroxyflutamide / IC50 of the compound)” value in assay [4] is recorded as 74.
For the molecule `CC(=O)OCC(C)(C)C1Nc2ccc([N+](=O)[O-])cc2C2C=CCC21` (stereo not shown) [Example 23], in assay [3], the AR agonistic action result is given as “AR agonistic action”.
The same measure, in the same setting: then `CC(C)(C)OC(=O)NCC(C)(C)C1Nc2ccc([N+](=O)[O-])cc2C2C=CCC21` (stereo not shown) [Example 25], with “AR agonistic action”.
`CC(C)(CCl)C1Nc2ccc([N+](=O)[O-])cc2C2C=CCC21` (stereo not shown) [Example 29]: the “RBA (Relative Binding Affinity = 100 x IC50 of hydroxyflutamide / IC50 of the compound)” value in assay [4] is given as 75.
Turning to `CC(C)(CO)C1Nc2ccc(C#N)cc2C2C=CCC21` (stereo not shown) [Example 35, 4-(2-Hydroxy-1,1′-dimethyl-ethyl)-3a,4,5,9b-tetrahydro-3H-cyclopenta[c]quinoline-8-carbonitrile], in assay [4], the “RBA (Relative Binding Affinity = 100 x IC50 of hydroxyflutamide / IC50 of the compound)” value is on record as 236.
As for `CC(=O)OCC(C)(C)C1Nc2ccc(C#N)cc2C2C=CCC21` (stereo not shown) [Example 40, acetic acid 2-(8-cyano-3a,4,5,9b-tetrahydro-3H-cyclopentatc[c]quinolin-4-yl)-2-methylpropyl ester], in assay [4], the “RBA (Relative Binding Affinity = 100 x IC50 of hydroxyflutamide / IC50 of the compound)” value is reported as 96.
On to `CC(=O)NCC(C)(C)C1Nc2ccc([N+](=O)[O-])cc2C2C=CCC21` (stereo not shown) [Example 52], for which the “RBA (Relative Binding Affinity = 100 x IC50 of hydroxyflutamide / IC50 of the compound)” value in assay [4] came to 478.
For `CC(C)C(=O)NCC(C)(C)C1Nc2ccc([N+](=O)[O-])cc2C2C=CCC21` (stereo not shown) [Example 53], in assay [4], the “RBA (Relative Binding Affinity = 100 x IC50 of hydroxyflutamide / IC50 of the compound)” value worked out at 55.
For the molecule `CC(C)(CNC(=O)c1ccccc1)C1Nc2ccc([N+](=O)[O-])cc2C2C=CCC21` (stereo not shown) [Example 56], the AR agonistic action entry in assay [3] is given as “AR agonistic action”.
Regarding `CC(C)(CNS(C)(=O)=O)C1Nc2ccc([N+](=O)[O-])cc2C2C=CCC21` (stereo not shown) [Example 59], in assay [4], the “RBA (Relative Binding Affinity = 100 x IC50 of hydroxyflutamide / IC50 of the compound)” value was 2288.
The same measure, in the same setting: then `CC(C)(CNS(=O)(=O)c1ccc(F)cc1)C1Nc2ccc([N+](=O)[O-])cc2C2C=CCC21` (stereo not shown) [Example 61], with 169; and `CC(=O)Nc1ccc(S(=O)(=O)NCC(C)(C)C2Nc3ccc([N+](=O)[O-])cc3C3C=CCC32)cc1` (stereo not shown) [Example 63], with 580; and `CC(C)NC(=O)NCC(C)(C)C1Nc2ccc([N+](=O)[O-])cc2C2C=CCC21` (stereo not shown) [Example 64, 1-isopropyl-3-[2-methyl-2-(8-nitro-3a,4,5,9b-tetrahydro-3H-cyclopenta[c]quinolin-4-yl)-propyl]urea], with 298.
In the case of `Cc1cccc(NC(=O)NCC(C)(C)C2Nc3ccc([N+](=O)[O-])cc3C3C=CCC32)c1` (stereo not shown) [Example 65], in assay [3], the AR agonistic action entry is given as “AR agonistic action”.
`CC(C)(CNC(=O)Nc1ccc([N+](=O)[O-])cc1)C1Nc2ccc([N+](=O)[O-])cc2C2C=CCC21` (stereo not shown) [Example 66]: in assay [3], the AR agonistic action result is on record as “AR agonistic action”.
The same measure, in the same setting: with `CNC(=S)NCC(C)(C)C1Nc2ccc([N+](=O)[O-])cc2C2C=CCC21` (stereo not shown) [Example 67] the entry was “AR agonistic action”.
As to `CCNC(=S)NCC(C)(C)C1Nc2ccc([N+](=O)[O-])cc2C2C=CCC21` (stereo not shown) [Example 68], the “RBA (Relative Binding Affinity = 100 x IC50 of hydroxyflutamide / IC50 of the compound)” value in assay [4] was found to be 491.
Same read-out and setting: with `CC(=O)SCC(C)(C)C1Nc2ccc([N+](=O)[O-])cc2C2C=CCC21` (stereo not drawn) [Example 76, thioacetic acid S-[2-methyl-2-(8-nitro-3a,4,5,9b-tetrahydro-3H-cyclopenta[c]quinolin-4-yl)propyl]ester] the figure was 131; with `CC(C)(O)C(=O)Nc1ccc([N+](=O)[O-])c(C(F)(F)F)c1` [Hydroxyflutamide, hydroxyflutamide, reference compound], 100.
